How the values were obtained:
Type in all cases: functional
Streptococcus pyogenes = assay: Antimicrobial activity against Streptococcus pyogenes ATCC 112344 by NCCLS method
Staphylococcus aureus [1] = assay: Antimicrobial activity against methicillin-susceptible Staphylococcus aureus Smith by NCCLS method
Streptococcus pneumoniae [2] = assay: Antimicrobial activity against penicillin-susceptible Streptococcus pneumoniae ATCC 49619 by NCCLS method
Streptococcus pneumoniae [3] = assay: Antimicrobial activity against penicillin-resistant Streptococcus pneumoniae KT2524 by NCCLS method
Enterococcus faecium = assay: Antimicrobial activity against vancomycin-resistant Enterococcus faecium KU1778 by NCCLS method
Staphylococcus aureus [4] = assay: Antimicrobial activity against methicillin-resistant Staphylococcus aureus KMP9
Haemophilus influenzae = assay: Antimicrobial activity against Haemophilus influenzae TH13 by NCCLS method
Moraxella catarrhalis = assay: Antimicrobial activity against Moraxella catarrhalis K1209 by NCCLS method
Staphylococcus aureus [5] = assay: Antimicrobial activity against methicillin-susceptible Staphylococcus aureus infected iv dosed mouse assessed as survival rate after 1 hr of infection

C=C[C@]1(C)C[C@@H](OC(=O)CN2CCN(C(=O)CCn3cnc4c(N5CCC(N)CC5)ncnc43)[C@@H](C)C2)[C@]2(C)[C@H](C)CC[C@]3(CCC(=O)[C@@H]32)[C@@H](C)[C@@H]1O.Cl.Cl
MIC (Streptococcus pyogenes): 0.032 µg/mL
MIC (Staphylococcus aureus [1]): 0.25 µg/mL
MIC (Streptococcus pneumoniae [2]): 0.063 µg/mL
MIC (Streptococcus pneumoniae [3]): 0.063 µg/mL
MIC (Enterococcus faecium): 0.125 µg/mL
MIC (Staphylococcus aureus [4]): 0.5 µg/mL
MIC (Haemophilus influenzae): 4 µg/mL
MIC (Moraxella catarrhalis): 0.125 µg/mL
ED50 (Staphylococcus aureus [5]): 1.66 mg/kg

C=C[C@]1(C)C[C@@H](OC(=O)CN2CCN(C(=O)CCn3cnc4c(N5CCC(N)C5)ncnc43)C(CC)C2)[C@]2(C)[C@H](C)CC[C@]3(CCC(=O)[C@@H]32)[C@@H](C)[C@@H]1O.Cl.Cl (some centres undefined)
MIC (Streptococcus pyogenes): 0.032 µg/mL
MIC (Staphylococcus aureus [1]): 0.25 µg/mL
MIC (Streptococcus pneumoniae [2]): 0.063 µg/mL
MIC (Streptococcus pneumoniae [3]): 0.063 µg/mL
MIC (Enterococcus faecium): 0.125 µg/mL
MIC (Staphylococcus aureus [4]): 0.25 µg/mL
MIC (Haemophilus influenzae): 4 µg/mL
MIC (Moraxella catarrhalis): 0.125 µg/mL
ED50 (Staphylococcus aureus [5]): 2.95 mg/kg

C=C[C@]1(C)C[C@@H](OC(=O)CN2CCN(C(=O)CCn3cnc4c(N5CC[C@@H](CNC)C5)ncnc43)CC2)[C@]2(C)[C@H](C)CC[C@]3(CCC(=O)[C@@H]32)[C@@H](C)[C@@H]1O.Cl.Cl
MIC (Streptococcus pyogenes): 0.063 µg/mL
MIC (Staphylococcus aureus [1]): 0.25 µg/mL
MIC (Streptococcus pneumoniae [2]): 0.125 µg/mL
MIC (Streptococcus pneumoniae [3]): 0.125 µg/mL
MIC (Enterococcus faecium): 0.5 µg/mL
MIC (Staphylococcus aureus [4]): 2 µg/mL
MIC (Haemophilus influenzae): 2 µg/mL
MIC (Moraxella catarrhalis): 0.125 µg/mL
ED50 (Staphylococcus aureus [5]): 1.18 mg/kg

C=C[C@]1(C)C[C@@H](OC(=O)CN2CCN(C(=O)CCn3cnc4c(N5CC[C@@H](N)C5)ncnc43)[C@@H](C)C2)[C@]2(C)[C@H](C)CC[C@]3(CCC(=O)[C@@H]32)[C@@H](C)[C@@H]1O.Cl.Cl
MIC (Streptococcus pyogenes): 0.016 µg/mL
MIC (Staphylococcus aureus [1]): 0.125 µg/mL
MIC (Streptococcus pneumoniae [2]): 0.032 µg/mL
MIC (Streptococcus pneumoniae [3]): 0.032 µg/mL
MIC (Enterococcus faecium): 0.125 µg/mL
MIC (Staphylococcus aureus [4]): 0.25 µg/mL
MIC (Haemophilus influenzae): 2 µg/mL
MIC (Moraxella catarrhalis): 0.125 µg/mL
ED50 (Staphylococcus aureus [5]): 1.56 mg/kg

C=C[C@]1(C)C[C@@H](OC(=O)CN2CCN(C(=O)CCn3cnc4c(N5CCC(N)C5)ncnc43)C(C)(C)C2)[C@]2(C)[C@H](C)CC[C@]3(CCC(=O)[C@@H]32)[C@@H](C)[C@@H]1O.Cl.Cl (some centres undefined)
MIC (Streptococcus pyogenes): 0.016 µg/mL
MIC (Staphylococcus aureus [1]): 0.125 µg/mL
MIC (Streptococcus pneumoniae [2]): 0.032 µg/mL
MIC (Streptococcus pneumoniae [3]): 0.032 µg/mL
MIC (Enterococcus faecium): 0.063 µg/mL
MIC (Staphylococcus aureus [4]): 0.125 µg/mL
MIC (Haemophilus influenzae): 4 µg/mL
MIC (Moraxella catarrhalis): 0.032 µg/mL
ED50 (Staphylococcus aureus [5]): 2.32 mg/kg

C=C[C@]1(C)C[C@@H](OC(=O)CN2CCN(C(=O)CCn3cnc4c(N5CCC(N)CC5)ncnc43)CC2)[C@]2(C)[C@H](C)CC[C@]3(CCC(=O)[C@@H]32)[C@@H](C)[C@@H]1O.Cl.Cl
MIC (Streptococcus pyogenes): 0.032 µg/mL
MIC (Staphylococcus aureus [1]): 0.25 µg/mL
MIC (Streptococcus pneumoniae [2]): 0.125 µg/mL
MIC (Streptococcus pneumoniae [3]): 0.125 µg/mL
MIC (Enterococcus faecium): 0.25 µg/mL
MIC (Staphylococcus aureus [4]): 1 µg/mL
MIC (Haemophilus influenzae): 2 µg/mL
MIC (Moraxella catarrhalis): 0.125 µg/mL
ED50 (Staphylococcus aureus [5]): 0.97 mg/kg
